Assay results reported in patent publication US8518952B2, “6 substituted 2-heterocyclylamino pyrazine compounds as CHK-1 inhibitors” (Pfizer Inc., priority 2008, dated 2013).
Where two headings read alike, the source gives them in different places.

Experiments:
HeLa cells = assay: Histone H3 (Ser10) phosphorylation ELISA, abrogation of camptothecin-induced G2 arrest (CHK-1 cellular assay); assay type: cell-based
In short: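 HeLa cells, or MiaPaCa-2 where marked, received camptothecin for 8 h, then compound with nocodazole for 16 h. Ser10-phosphorylated histone H3 in lysates was measured by ELISA with a biotinylated antibody, streptavidin-HRP and TMB. EC50 came from four-parameter sigmoid fits.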

CHK1 (kinase domain) = molecular target: T1, CHK1 (kinase domain) (Homo sapiens, UniProt O14757); assay: CHK1 Ki determination, spectrophotometric coupled (pyruvate kinase/lactate dehydrogenase) assay; assay type: biochemical; settings: CHK-1 kinase domain; for percent inhibition (where no Ki data is available): inhibitor concentration not given; for Ki: 150 uM ATP, 125 uM Syntide 2
T1 construct: a solution containing 1 nM of CHK1 (kinase domain)
T1 sequence (O14757 9-265 limits assumed): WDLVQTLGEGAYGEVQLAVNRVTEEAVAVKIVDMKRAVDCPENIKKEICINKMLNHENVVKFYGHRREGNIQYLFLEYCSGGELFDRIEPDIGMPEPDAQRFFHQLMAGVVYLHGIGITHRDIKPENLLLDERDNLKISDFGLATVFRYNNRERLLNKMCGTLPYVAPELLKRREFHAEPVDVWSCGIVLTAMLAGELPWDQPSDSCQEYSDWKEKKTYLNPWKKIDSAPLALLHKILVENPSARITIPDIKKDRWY
In short: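 The CHK1 kinase domain was pre-incubated with compound for 15 min, and the reaction was started with 125 uM Syntide 2 and 150 uM ATP. ADP formation was coupled through pyruvate kinase/lactate dehydrogenase to NADH oxidation, read as the A340 decrease. Kiapp was fitted with a tight-binding equation that accounts for enzyme concentration and ATP Km; some entries are % inhibition.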

[1] = Homo sapiens, HeLa, HeLa cells, camptothecin 8 hrs, then compound with nocodozole 16 hours, read-out: EC50
[2] = HeLa cells, camptothecin 8 hrs, then compound with nocodozole 16 hours, read-out: EC50

| EC50 (HeLa cells; [1]) [nM] | percent inhibition (where no Ki data is available) (CHK1 (kinase domain)) | Ki (CHK1 (kinase domain)) [nM] | EC50 (HeLa cells; [2]) [nM] | SMILES | EC50 (HeLa cells; Homo sapiens, HeLa) [nM] |
| --- | --- | --- | --- | --- | --- |
| 23.4 |  | 1.09 |  | Fc1ccc2c(-c3cncc(N[C@@H]4CCCNC4)n3)cnn2c1 [Example 198, 6-(6-fluoropyrazolo[1,5-a]pyridin-3-yl)-N-[(3R)-piperidin-3-yl]pyrazin-2-amine] |  |
| ≥ 10000 |  | 1110 |  | Cc1ncc(-c2cncc(N[C@@H]3CCCNC3)n2)n1C [Example 64, 6-(1,2-dimethyl-1H-imidazol-5-yl)-N-[(3R)-piperidin-3-yl]pyrazin-2-amine] |  |
| 184 |  | 5.68 |  | FC[C@@H]1C[C@@H](Nc2cncc(-c3cnn4cc(Cl)ccc34)n2)CN1 [Example 79, 6-(6-chloropyrazolo[1,5-a]pyridin-3-yl)-N-[(3R,5S)-5-(fluoromethyl)pyrrolidin-3-yl]pyrazin-2-amine] |  |
| ≥ 10000 |  | 90.7 |  | C[C@@H]1CC[C@@H](Nc2cncc(-c3cnc4ccc(F)cn34)n2)CN1 [Example 88, 6-(6-fluoroimidazo[1,2-a]pyridin-3-yl)-N-[(3R,6R)-6-methylpiperidin-3-yl]pyrazin-2-amine] |  |
|  |  | 3.63 | 22.4 | CC(C)c1cn2c(-c3cncc(N[C@@H]4CCCN[C@@H]4C)n3)cnc2s1 [Example 111, 6-(2-isopropylimidazo[2,1-b][1,3]thiazol-5-yl)-N-[(2R,3R)-2-methylpiperidin-3-yl]pyrazin-2-amine] |  |
| 48.9 |  | 4.88 |  | OC[C@@H]1CNC[C@@H]1Nc1cncc(-c2cnn3cc(Cl)ccc23)n1 [Example 201, [(3R,4R)-4-{[6-(6-chloropyrazolo[1,5-a]pyridin-3-yl)pyrazin-2-yl]amino}pyrrolidin-3-yl]methanol] |  |
|  |  | 1.09 | 123 | CC(C)c1cn2c(-c3cncc(N[C@@H]4CCCN[C@@H]4C)n3)cnc2s1 [Example 165, N-[(2R,3R)-2-methylpiperidin-3-yl]-6-[2-(propan-2-yl)imidazo[2,1-b][1,3]thiazol-5-yl]pyrazin-2-amine] |  |
| 493 |  | 19 |  | C[C@@H]1CC[C@@H](Nc2cncc(-c3cnc4cnccn34)n2)CN1 [Example 146, 6-imidazo[1,2-a]pyrazin-3-yl-N-[(3R,6R)-6-methylpiperidin-3-yl]pyrazin-2-amine] |  |
| 634 |  | 147 |  | C[C@H]1CC[C@@H](Nc2cncc(-c3cnc4ccccn34)n2)CN1 [Example 30, 6-imidazo[1,2-a]pyridin-3-yl-N-[(3R,6S)-6-methylpiperidin-3-yl]pyrazin-2-amine] |  |
| 664 |  | 24 |  | N#Cc1ccn2c(-c3cncc(N[C@@H]4CCNC4)n3)cnc2c1 [Example 186, 3-{6-[(3R)-pyrrolidin-3-ylamino]pyrazin-2-yl}imidazo[1,2-a]pyridine-7-carbonitrile] |  |
| 123 |  | 1.3 |  | C[C@@H]1CNC[C@@H]1Nc1cncc(-c2cnc3cc(-c4cnn(C)c4)ccn23)n1 [Example 209, 6-[7-(1-methyl-1H-pyrazol-4-yl)imidazo[1,2-a]pyridin-3-yl]-N-[(3R,4R)-4-methylpyrrolidin-3-yl]pyrazin-2-amine] |  |
| 205 |  | 4.77 |  | F[C@H]1CCNC[C@@H]1Nc1cncc(-c2cnc3ccccn23)n1 [Example 28, N-[(3S,4S)-4-fluoropiperidin-3-yl]-6-imidazo[1,2-a]pyridin-3-ylpyrazin-2-amine] |  |
| 3530 |  | 14.6 |  | FC(F)[C@@H]1C[C@@H](Nc2cncc(-c3cnn4cc(Cl)ccc34)n2)CN1 [Example 100, 6-(6-chloropyrazolo[1,5-a]pyridin-3-yl)-N-[(3R,5S)-5-(difluoromethyl)pyrrolidin-3-yl]pyrazin-2-amine] |  |
| 78.7 |  | 1.07 |  | OCc1ccc2ncc(-c3cncc(N[C@@H]4CCCNC4)n3)n2c1 [Example 151, (3-{6-[(3R)-piperidin-3-ylamino]pyrazin-2-yl}imidazo[1,2-a]pyridin-6-yl)methanol] |  |

Second part, the molecule before the results:

| SMILES | EC50 (HeLa cells; [1]) [nM] | percent inhibition (where no Ki data is available) (CHK1 (kinase domain)) | Ki (CHK1 (kinase domain)) [nM] | EC50 (HeLa cells; [2]) [nM] | EC50 (HeLa cells; Homo sapiens, HeLa) [nM] |
| --- | --- | --- | --- | --- | --- |
| Clc1ccc2c(-c3cncc(N[C@@H]4CCNC4)n3)cnn2c1 [Example 113, 6-(6-chloropyrazolo[1,5-a]pyridin-3-yl)-N-[(3R)-pyrrolidin-3-yl]pyrazin-2-amine] | 103 | 95.5%^ |  |  |  |
| FC(F)(F)c1ccn2c(-c3cncc(N[C@@H]4CCCNC4)n3)cnc2c1 [Example 40, N-[(3R)-piperidin-3-yl]-6-[7-(trifluoromethyl)imidazo[1,2-a]pyridin-3-yl]pyrazin-2-amine] | 104 |  | 4.43 |  |  |
| CC(C)Oc1ccc2ncn(-c3cncc(N[C@@H]4CCCNC4)n3)c2c1 [Example 150, 6-(6-isopropoxy-1H-benzimidazol-1-yl)-N-[(3R)-piperidin-3-yl]pyrazin-2-amine] | 284 |  | 5.91 |  |  |
| CC(C)c1ccc2ncc(-c3cncc(N[C@@H]4CCCNC4)n3)n2c1 [Example 43, 6-(6-Isopropylimidazo[1,2-a]pyridin-3-yl)-N-[(3R)-piperidin-3-yl]pyrazin-2-amine] | 64.6 |  | 6.69 |  |  |
| FC[C@@H]1C[C@@H](Nc2cncc(-c3cnc4ccccn34)n2)CN1 [Example 67, N-[(3R,5S)-5-(fluoromethyl)pyrrolidin-3-yl]-6-imidazo[1,2-a]pyridin-3-ylpyrazin-2-amine] | 507 |  | 80 |  |  |
| Clc1ccn2c(-c3cncc(N[C@@H]4CCCNC4)n3)cnc2c1 [Example 44, 6-(7-Chloroimidazo[1,2-a]pyridin-3-yl)-N-[(3R)-piperidin-3-yl]pyrazin-2-amine] | 21 |  | 2.51 |  |  |
| c1cn2c(-c3cncc(N[C@@H]4C[C@@H]5CN[C@H]4C5)n3)cnc2cn1 [Example 147, (1S,4R,6R)-N-(6-imidazo[1,2-a]pyrazin-3-ylpyrazin-2-yl)-2-azabicyclo[2.2.1]heptan-6-amine] | 295 |  | 12.9 |  |  |
| C[C@@H]1CNC[C@@H]1Nc1cncc(-n2cnc3cc(-c4cnn(C)c4)ccc32)n1 [Example 34, 6-[5-(1-methyl-1H-pyrazol-4-yl)-1H-benzimidazol-1-yl]-N-[(3R,4R)-4-methylpyrrolidin-3-yl]pyrazin-2-amine] | 29 |  | 3.38 |  |  |
| Cc1cn2c(-c3cncc(N[C@H]4CCCN[C@H]4C)n3)cnc2s1 [Example 175, 6-(2-methylimidazo[2,1-b][1,3]thiazol-5-yl)-N-[(2S,3S)-2-methylpiperidin-3-yl]pyrazin-2-amine] | 197 |  | 13.7 |  |  |
| Cc1ncc(N[C@@H]2CCNC2)nc1-c1cnc2ccccn12 [Example 296, 6-(imidazo[1,2-a]pyridin-3-yl)-5-methyl-N-[(3R)-pyrrolidin-3-yl]pyrazin-2-amine] | 4080 |  | 334 |  |  |
| C[C@H]1NCCC[C@H]1Nc1cncc(-c2cnc3ccc(F)cn23)n1 [Example 94, 6-(6-fluoroimidazo[1,2-a]pyridin-3-yl)-N-[(2R,3R)-2-methylpiperidin-3-yl]pyrazin-2-amine] |  |  | 20.6 | 370 |  |
| c1ccn2c(-c3cncc(N[C@@H]4CCCNC4)n3)cnc2c1 [Example 2, 6-Imidazo[1,2-a]pyridin-3-yl-N-[(3R)-piperidin-3-yl]pyrazin-2-amine] |  |  | 3.24 |  | 34.3 |
| CC(C)Oc1ccc2c(c1)ncn2-c1cncc(N[C@@H]2CCNC2)n1 [Example 222, 6-[5-(propan-2-yloxy)-1H-benzimidazol-1-yl]-N-[(3R)-pyrrolidin-3-yl]pyrazin-2-amine] | ≥ 10000 | 42.5%^ |  |  |  |
| CCOC[C@@H]1C[C@@H](Nc2cncc(-c3cnc4ccccn34)n2)CN1 [Example 193, N-[(3R,5S)-5-(ethoxymethyl)pyrrolidin-3-yl]-6-(imidazo[1,2-a]pyridin-3-yl)pyrazin-2-amine] | 102 |  | 26.5 |  |  |
| Cc1cn2c(-c3cncc(N[C@H]4CN[C@H](C)C4)n3)cnc2s1 [Example 178, 6-(2-methylimidazo[2,1-b][1,3]thiazol-5-yl)-N-[(3R,5R)-5-methylpyrrolidin-3-yl]pyrazin-2-amine] | 31.2 |  | 2.01 |  |  |
| C[C@H]1NCCC[C@H]1Nc1cncc(-c2cnc3sccn23)n1 [Example 180, 6-(imidazo[2,1-b][1,3]thiazol-5-yl)-N-[(2R,3R)-2-methylpiperidin-3-yl]pyrazin-2-amine] | ≥ 10000 |  | 1.5 |  |  |
| C[C@H]1NCCC[C@@H]1Nc1cncc(-c2cnc3ccccn23)n1 [Example 132, 6-imidazo[1,2-a]pyridin-3-yl-N-[(2R,3S)-2-methylpiperidin-3-yl]pyrazin-2-amine] | ≥ 10000 | 18.3%^ |  |  |  |
| CC1(Nc2cncc(-c3cnc4ccccn34)n2)CCCNC1 (centres unmarked) [Example 54, 6-Imidazo[1,2-a]pyridin-3-yl-N-(3-methylpiperidin-3-yl)pyrazin-2-amine] | 1110 |  | 118 |  |  |
| c1ccn2c(-c3cncc(N[C@H]4CCCNC4)n3)cnc2c1 [Example 3, 6-Imidazo[1,2-a]pyridin-3-yl-N-[(3S)-piperidin-3-yl]pyrazin-2-amine] | 486 | 0% |  |  |  |
| CC1(Nc2cncc(-c3cnc4n3CCCC4)n2)CCNC1 (centres unmarked) [Example 98, N-(3-methylpyrrolidin-3-yl)-6-(5,6,7,8-tetrahydroimidazo[1,2-a]pyridin-3-yl)pyrazin-2-amine] | ≥ 10000 |  | 1000 |  |  |
